In US7875422B2, “Viral drug susceptibility testing” (Cavidi AB, priority 2001, dated 2011):
pIC50: −log10 of the molar value. Like-named read-outs stand apart in the source and are kept apart here.

Columns and labels:
[1] = system: HIV 1 virus with the corresponding RT modification; set-up: key: RS = the mutations gives re-sensitation of resistant virus; S = sensitive; L = Low level resistance; I = Intermediate resistance; H = High level resistance; conditions: phenotype data from literature, cited from earlier work
[2] = system: HIV 1 virus with the corresponding RT modification; set-up: key: S = sensitive; L = Low level resistance (2–10 times increase in inhibitory dose); I = Intermediate resistance (10–100 times increase); H = High level resistance (>100 times increase); conditions: dT analogues, phenotype data from literature, cited from earlier work
[3] = target: T1, recombinant HIV 1 RT wild type (Human immunodeficiency virus type 1 group M subtype B, UniProt P04585); assay: Influence of the amount of RT used in the drug susceptibility tests (AZT-TP); type: biochemical
T1 construct: This variation was maximal for wild type RT; made in house

[4] = system: recombinant HIV 1 RT M41L/T69S-SS/L210W/R211K/L214F/T215Y; conditions: Recombinant RT control T69S→SS; compared to wild type control RT
Excerpt: (§2) Regrettably an efficient phosphorolysis reaction is promptly reflected by a decrease in polymerization velocity and as a consequence also a decrease in detection sensitivity. Therfore this assay require more RT activity, compared to the corresponding assay for the NNRTIs.

[5] = target: recombinant HIV 1 RT M41L/T69S-SS/L210W/R211K/L214F/T215Y (Human immunodeficiency virus type 1 group M subtype B, UniProt P04585, INS655SS/L797W/L801F/M628L/R798K/T656S/T802Y); assay: biochemical
Excerpt: as §2

[6] = target: recombinant HIV 1 RT T215Y (Human immunodeficiency virus type 1 group M subtype B, UniProt P04585, T802Y); assay: RT inhibition assay for dT analogues (Chain-termination reaction mixture)
Excerpt: as §2

[7] = target: recombinant HIV 1 RT wild type HxB2 (Human immunodeficiency virus type 1 group M subtype B, UniProt P04585); assay: as above
[8] = target: T2, recombinant HIV 1 RT wild type BH10 (Human immunodeficiency virus type 1 group M subtype B, UniProt P03366); assay: as above; conditions: for fold increase of IC50: Recombinant RT control wild type RT (Table 4)
[9] = target: T3, HIV RT recovered from patient plasma (Human immunodeficiency virus type 1, UniProt P03366); assay: Susceptibility to AZT-TP and d4T-TP using plasma derived RTs (Chain-termination reaction mixture); conditions: 5 fg/well
Procedure: (§3) • 1) Label the 4.5 ml plastic tubes to be used. Place them in a Nalgene box. Add 1 ml of sample (e.g. EDTA plasma from HIV infected individuals) to each labelled tube. Add 100 μl of a 66 mM solution of 5,5′-dithiobis-(2-nitrobenzoic acid) in buffered water, vortex and incubate the samples for one hour at room temperature.
(§4) The activity of the free plasma enzymes is destroyed during this procedure while the enzymes contained within the virions remain intact. The virions can then be purified from 5,5′-dithiobis-(2-nitrobenzoic acid), enzyme activity blocking antibodies and other substances that may interfere with quantification of viral RT by several separation procedures. The protocol below is based on the use of Fractogel® EMD TMAE Hicap gel. • 2) Suspend the separation gel carefully and transfer 1500 μl gel slurry to each sample pretreatment tube. • 3) Incubate the samples with the gel slurry for 90 minutes at room temperature with the tubes lying down horizontally on an orbital shaker. • 4) Label the desired amount of 10 ml plastic mini columns to identify the samples being analyzed. Mount the columns in a column washing device i.e. a Supelco Visiprep solid phase extraction vacuum manifold. Transfer the contents in the binding tubes to their corresponding columns. Before transfer vortex the tube briefly to evenly distribute the gel. • 5) When all the columns are filled, apply the vacuum and suck the gels dry. Turn off the vacuum and start the washing by filling each column with 9 ml buffer A. When all columns have been filled, apply the vacuum and suck the gels dry. • 6) Repeat step 5 three more times, giving a total of four washes. Suck the gels dry after each wash. After sucking the gels dry after the fourth wash, turn off the vacuum and proceed to step 7. • The washing step removes unbound RT blocking antibodies and 5,5′-dithiobis-(2-nitrobenzoic acid) from the system. • 7) Add to all dry gels 9 ml of conditioning buffer (B). After one minute apply vacuum and suck the gels dry. • 8) Repeat step 7. Before turning off the vacuum check that all conditioning buffer (B) has been removed from all gels. • 9) Lift off the upper part of the column wash device. Mount the tube holder with the labelled tubes into a clean container. Refit the upper part of the device. Control that the small tubings from each column go down in their corresponding tubes. • 10) Add 600 μl lysis buffer (C) to each column. Let the buffer stand in the column for five minutes. Then apply the vacuum slowly and suck the gels dry. This will in each tube give approximately 600 μl of virus lysate from the connected gel.
(§5) The RT activity recovered in the lysates from step 10 are essentially free from RT blocking antibodies, drugs and cellular polymerase activity, and can be quantified with a sensitive RT activity assay, i.e. the Cavidi HS-kit Lenti RT, which is based on the method described by Ekstrand et al [7]. 25 μl lysate obtained according to the current protocol is sufficient for determination of the RT activity in the sample. The Remaining 575 μl sample should be frozen at −70° C. or below for later use in the drug sensitivity test.

[10] = target: HIV RT recovered from patient plasma (UniProt P04585, K657R/L797S, species not given); assay: as above; conditions: plasma RT of patient code 1030 (K70R, L210S); 5 fg/well
[11] = target: HIV RT recovered from patient plasma (UniProt P04585, K690N/V695H, species not given); assay: as above; conditions: plasma RT of patient code 2098; 5 fg/well
[12] = target: HIV RT recovered from patient plasma (UniProt P04585, M628L/E631D/D654N/A685G/V705I/Y768C/L797W/T802Y, species not given); assay: as above; conditions: plasma RT of patient code 656 (resensitising 181C); 5 fg/well
[13] = target: HIV RT recovered from patient plasma (UniProt P04585, T656N/L687I/K690N, species not given); assay: as above; conditions: plasma RT of patient code 622; 5 fg/well
[14] = system: HIV RT recovered from patient plasma; assay: as above; conditions: compared to wild type control RT
Procedure: as §3, §4, §5

[15] = system: HIV 1 virus with the corresponding RT modification; set-up: key: S = sensitive; L = Low level resistance (2–10 times increase in inhibitory dose); I = Intermediate resistance (10–100 times increase); H = High level resistance (>100 times increase); conditions: phenotype data from literature, cited from earlier work
[16] = target: recombinant HIV 1 RT K103N (Human immunodeficiency virus type 1 group M subtype B, UniProt P03366, K702N); assay: RT inhibition assay for non-nucleoside inhibitors (modified HS Lenti RT assay, RT Reaction mixture); type: biochemical; conditions: 1.7 fg/well, 19 hours, read-out: IC50 of indicated inhibitor in RT assay
Excerpt: (§1) As template for the mutations was used the pETRT expression vector, which was constructed from the BH10 isolate.

[17] = target: recombinant HIV 1 RT L100I (Human immunodeficiency virus type 1 group M subtype B, UniProt P03366, L699I); assay: as above; type: biochemical; conditions: 1.7 fg/well, 19 hours, read-out: IC50 of indicated inhibitor in RT assay
Excerpt: as §1

[18] = target: recombinant HIV 1 RT L100I/K103N (Human immunodeficiency virus type 1 group M subtype B, UniProt P03366, K702N/L699I); assay: as above; type: biochemical; conditions: 1.7 fg/well, 19 hours, read-out: IC50 of indicated inhibitor in RT assay
Excerpt: as §1

[19] = target: T2, recombinant HIV 1 RT wild type BH10; assay: as above; type: biochemical; conditions: 1.7 fg/well, 19 hours, read-out: IC50 of indicated inhibitor in RT assay
Excerpt: as §1

[20] = target: T3, HIV RT recovered from patient plasma; assay: Susceptibility to NNRTIs using plasma derived RTs; type: biochemical, HIV-1; conditions: 1.7 fg/well
Excerpt: Place them in a Nalgene box.
Suck the gels dry after each wash. […] Refit the upper part of the device.

[21] = virus with M41L/T69S-SS/L210W/R211K/L214F/T215Y
[22] = IC50, plasma RT of patient code 48
[23] = IC50, plasma RT of patient code 160
[24] = IC50, plasma RT of patient code 181
[25] = IC50, plasma RT of patient code 662
[26] = IC50, plasma RT of patient code 807
[27] = IC50, plasma RT of patient code 3507

## Cc1cn([C@H]2C=C[C@@H](CO)O2)c(=O)[nH]c1=O [d4T]
[1]; [21]
  Sensitivity of the corrsponding virus: H
[1]; virus with T215Y
  Sensitivity of the corrsponding virus: L
[2]; wild type HXB2
  Sensitivity of the corrsponding virus: S
[2]; wildtype BH 10
  Sensitivity of the corrsponding virus: S

## Cc1cn(C2CC(N=[N+]=[N-])C(COP(=O)(O)OP(=O)(O)OP(=O)(O)O)O2)c(=O)[nH]c1=O (stereo not shown) [AZT-TP, 3′-azido-2′,3′-deoxythymidine triphosphate]
[3]; RT amount 2 fg/well
  pIC50: 6.89
[3]; RT amount 162 fg/well
  pIC50: 6.66
[4]
  fold increase of IC50: 25 fold
[5]
  pIC50: 5.40
[6]
  pIC50: 6.16
[7]
  pIC50: 6.72
[8]
  pIC50: 6.80
  fold increase of IC50: 1.0 fold
[9]; [22]
  pIC50: 6.33
[9]; [23]
  pIC50: 6.57
[9]; [24]
  pIC50: 6.30
[9]; [25]
  pIC50: 6.30
[9]; [26]
  pIC50: 6.30
[9]; [27]
  pIC50: 6.89
[10]
  pIC50: 5.49
[11]
  pIC50: 6.46
[12]
  pIC50: 5.90
[13]
  pIC50: 6.64
[14]; patient code 48
  fold increase of IC50: 2.9 fold
[14]; patient code 160
  fold increase of IC50: 1.7 fold
[14]; patient code 181
  fold increase of IC50: 3.1 fold
[14]; patient code 393
  fold increase of IC50: 20 fold
[14]; patient code 622
  fold increase of IC50: 1.4 fold
[14]; patient code 656
  fold increase of IC50: 7.8 fold
[14]; patient code 662
  fold increase of IC50: 3.1 fold
[14]; patient code 807
  fold increase of IC50: 3.1 fold
[14]; patient code 1030
  fold increase of IC50: 20 fold
[14]; patient code 1144
  fold increase of IC50: 3.5 fold
[14]; patient code 1320
  fold increase of IC50: 8.3 fold
[14]; patient code 2098
  fold increase of IC50: 2.2 fold
[14]; patient code 3507
  fold increase of IC50: 0.8 fold

## O=C1Nc2ccc(Cl)cc2C(C#CC2CC2)(C(F)(F)F)O1 (single isomer, unassigned; (-)) [Efavirienz, (−)6-chloro-4-cyclopropylethynyl-4-trifluoromethyl-1,4-dihydro-2H-3,1-benzoxazin-2-one]
[15]; virus with K103N
  Sensitivity of the corresponding virus: H (H = High level resistance (>100 times increase))
[15]; virus with L100I/K103N
  Sensitivity of the corresponding virus: H (H = High level resistance (>100 times increase))
[15]; virus with L100I
  Sensitivity of the corresponding virus: I (I = Intermediate resistance (10–100 times increase))
[15]; wild type BH10, NNRTIs
  Sensitivity of the corresponding virus: S
[15]; wild type HxB2, NNRTIs
  Sensitivity of the corresponding virus: S

## Cc1ccnc2c1NC(=O)c1cccnc1N2C1CC1 [Nevirapin, 11-cyclopropyl-5,11-dihydro-4-methyl-6H-dipyrido[3,2-b:2′,3′-f][1,4]diazepin-6-one]
[15]; virus with K103N
  Sensitivity of the corresponding virus: H (H = High level resistance (>100 times increase))
[15]; virus with L100I/K103N
  Sensitivity of the corresponding virus: H (H = High level resistance (>100 times increase))
[15]; virus with L100I
  Sensitivity of the corresponding virus: L (L = Low level resistance (2–10 times increase in inhibitory dose))
[15]; wild type BH10, NNRTIs
  Sensitivity of the corresponding virus: S
[15]; wild type HxB2, NNRTIs
  Sensitivity of the corresponding virus: S

## CC(C)Nc1cccnc1N1CCN(C(=O)c2cc3cc(NS(C)(=O)=O)ccc3[nH]2)CC1 [Delaviridine, 1-(5-methanesulphonamido-1H-indol-2-yl-carbonyl)-4-[3-(1-methylethyl-amino)pyridinyl]piperazine monomethane sulphonate]
[16]
  pIC50: 5.52
[17]
  pIC50: 5.02
[18]
  pIC50: < 4.00
[19]
  pIC50: 6.30
[20]; IC50, plasma RT of patient code 1177
  pIC50: 5.34
[20]; IC50, plasma RT of patient code 1412
  pIC50: 5.44
[20]; IC50, plasma RT of patient code 1424
  pIC50: 5.09
[20]; IC50, plasma RT of patient code 1572
  pIC50: 5.02
[20]; IC50, plasma RT of patient code 1639
  pIC50: 4.90
[20]; IC50, plasma RT of patient code 1885
  pIC50: 5.05
[20]; plasma RT of patient code 3980 (V179T/A/I)
  pIC50: 5.12

## Cc1cn([C@H]2C=C[C@@H](COP(=O)(O)OP(=O)(O)OP(=O)(O)O)O2)c(=O)[nH]c1=O [d4T-TP, 2′,3′-didehydro-3′-deoxythymidine triphosphate]
[4]
  fold increase of IC50: 15 fold
[5]
  pIC50: 6.31
[6]
  pIC50: 6.82
[7]
  pIC50: 7.30
[8]
  pIC50: 7.48
  fold increase of IC50: 1.0 fold
[9]; [22]
  pIC50: 7.07
[9]; [23]
  pIC50: 7.37
[9]; [24]
  pIC50: 7.31
[9]; [25]
  pIC50: 7.19
[9]; [26]
  pIC50: 7.15
[9]; [27]
  pIC50: 7.70
[10]
  pIC50: 5.96
[11]
  pIC50: 7.32
[12]
  pIC50: 6.77
[13]
  pIC50: 7.55
[14]; patient code 48
  fold increase of IC50: 2.6 fold
[14]; patient code 160
  fold increase of IC50: 1.3 fold
[14]; patient code 181
  fold increase of IC50: 1.5 fold
[14]; patient code 393
  fold increase of IC50: 12.7 fold
[14]; patient code 622
  fold increase of IC50: 0.8 fold
[14]; patient code 656
  fold increase of IC50: 5.2 fold
[14]; patient code 662
  fold increase of IC50: 2.0 fold
[14]; patient code 807
  fold increase of IC50: 2.7 fold
[14]; patient code 1030
  fold increase of IC50: 33 fold
[14]; patient code 1320
  fold increase of IC50: 19.6 fold
[14]; patient code 2098
  fold increase of IC50: 1.5 fold
[14]; patient code 3507
  fold increase of IC50: 0.6 fold

## Cc1cn([C@H]2C[C@H](N=[N+]=[N-])[C@@H](CO)O2)c(=O)[nH]c1=O [AZT]
[1]; [21]
  Sensitivity of the corrsponding virus: H
[1]; virus with T215Y
  Sensitivity of the corrsponding virus: I
[2]; wild type HXB2
  Sensitivity of the corrsponding virus: S
[2]; wildtype BH 10
  Sensitivity of the corrsponding virus: S
